According to publication PMC3589550 (Nature structural & molecular biology, 2011):
Ends that are not written are not given here.

Legend:
HAUSP [1] = biological target: T1, HAUSP (Homo sapiens, UniProt Q93009); test: In vitro DUB assay with ubiquitinated MDM2; format: biochemical; details: HAUSP preincubated with increasing concentrations of peptide
BJAB cells = test: Immunoblot of p53 pathway proteins, BJAB; format: cell-based; details: 6 h
HAUSP [2] = biological target: T1, HAUSP; test: In vitro deubiquitination; format: biochemical
HAUSP [3] = biological target: T1, HAUSP; test: Co-IP / GST pull-down of HAUSP; format: binding; details: transfected 293T cells
HAUSP TRAF domain = test: Competitive ITC: vIRF4^202–216 vs cellular substrate peptides on the TRAF domain; format: binding
[4] = biological target: HAUSP TRAF domain (HAUSP^62–205) (Homo sapiens, UniProt Q93009); format: binding; details: ITC
HAUSP TRAF domain (HAUSP^62–205), sequence (Q93009 62-205): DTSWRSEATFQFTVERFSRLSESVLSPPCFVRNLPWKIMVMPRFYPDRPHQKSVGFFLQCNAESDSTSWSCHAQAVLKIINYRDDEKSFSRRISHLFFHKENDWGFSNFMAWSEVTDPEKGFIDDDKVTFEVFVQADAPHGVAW

PEL cells = test: Immunoblot of p53 and transcriptional targets, PEL cells; format: cell-based; details: various PEL cells, 6 h

T1 sequence (Q93009 whole entry): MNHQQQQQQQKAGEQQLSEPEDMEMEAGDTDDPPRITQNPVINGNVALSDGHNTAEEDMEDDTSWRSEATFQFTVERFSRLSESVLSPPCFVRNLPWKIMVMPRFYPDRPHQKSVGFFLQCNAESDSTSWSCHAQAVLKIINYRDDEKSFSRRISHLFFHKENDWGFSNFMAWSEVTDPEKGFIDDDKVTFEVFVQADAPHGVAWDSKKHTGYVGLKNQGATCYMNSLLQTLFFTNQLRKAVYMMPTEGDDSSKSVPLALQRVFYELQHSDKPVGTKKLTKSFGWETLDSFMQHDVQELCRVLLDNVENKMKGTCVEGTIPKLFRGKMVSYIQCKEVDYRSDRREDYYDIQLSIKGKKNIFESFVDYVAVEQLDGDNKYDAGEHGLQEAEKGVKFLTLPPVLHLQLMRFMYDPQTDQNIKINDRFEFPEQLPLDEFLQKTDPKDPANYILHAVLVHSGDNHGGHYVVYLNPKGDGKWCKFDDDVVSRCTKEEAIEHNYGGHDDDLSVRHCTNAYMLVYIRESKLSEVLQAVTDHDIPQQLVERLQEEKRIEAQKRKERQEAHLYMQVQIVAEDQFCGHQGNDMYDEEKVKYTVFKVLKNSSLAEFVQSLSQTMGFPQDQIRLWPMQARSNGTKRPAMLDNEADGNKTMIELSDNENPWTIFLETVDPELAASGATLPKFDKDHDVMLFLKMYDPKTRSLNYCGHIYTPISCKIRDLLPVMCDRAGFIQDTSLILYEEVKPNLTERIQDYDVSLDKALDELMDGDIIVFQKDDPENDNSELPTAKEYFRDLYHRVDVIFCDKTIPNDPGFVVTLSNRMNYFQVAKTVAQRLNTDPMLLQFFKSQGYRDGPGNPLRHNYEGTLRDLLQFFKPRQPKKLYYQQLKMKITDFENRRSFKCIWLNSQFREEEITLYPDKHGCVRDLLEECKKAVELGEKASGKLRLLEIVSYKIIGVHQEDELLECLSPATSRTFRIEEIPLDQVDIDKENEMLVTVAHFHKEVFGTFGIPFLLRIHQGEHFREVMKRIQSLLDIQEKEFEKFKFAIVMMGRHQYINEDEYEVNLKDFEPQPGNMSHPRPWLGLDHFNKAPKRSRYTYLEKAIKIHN

| Compound | HAUSP DUB activity toward ubiquitinated MDM2 (HAUSP [1]) | HAUSP levels (BJAB cells) | HAUSP enzymatic activity against K48-linked polyubiquitin chains (HAUSP [2]; K48-linked polyubiquitin chains) | HAUSP DUB activity (HAUSP [2]; purified HAUSP, K48- or K63-linked 3–7 polyubiquitin chains) | interaction with HAUSP (HAUSP [3]) | observed association constant (Kobs) (HAUSP TRAF domain; vIRF4^202–216 titrated as competitor against MDM2^137–152) [M⁻¹] | observed association constant (Kobs) (HAUSP TRAF domain; vIRF4^202–216 titrated as competitor against p53^350–364) [M⁻¹] | observed association constant (Kobs) (HAUSP TRAF domain; vIRF4^202–216 titrated as competitor against p53^355–369) [M⁻¹] | TRAF binding affinity, in words [4] | HAUSP levels (PEL cells) | association constant (Ka) (HAUSP TRAF domain; substrate peptide titrated into the HAUSP TRAF domain) [M⁻¹] |
| --- | --- | --- | --- | --- | --- | --- | --- | --- | --- | --- | --- |
| CC[C@H](C)[C@H](NC(=O)[C@H](Cc1c[nH]c2ccccc12)NC(=O)[C@@H](NC(=O)[C@@H](N)CO)C(C)C)C(=O)N1CCC[C@H]1C(=O)N[C@H](C(=O)N[C@@H](CC(N)=O)C(=O)N[C@@H](CCC(=O)O)C(=O)NCC(=O)N[C@@H](C)C(=O)N[C@@H](CO)C(=O)N[C@H](C(=O)N[C@@H](CO)C(=O)NCC(=O)N[C@@H](CCSC)C(=O)O)[C@@H](C)O)C(C)C [vif1] | effectively blocked HAUSP DUB activity when ubiquitinated MDM2 was used as a substrate | Neither the vif1 nor vif2 peptide treatment altered HAUSP levels | ineffectiveness against K48-linked polyubiquitin chains | minimally inhibited activity | individually capable of interacting with HAUSP | 1.09e+07 | 4.42e+07 | 3.58e+07 | binds to the HAUSP TRAF domain with the highest affinity among all reported substrates | Neither the vif1 nor vif2 peptide treatment altered HAUSP levels |  |
| DLVQELQEEKPSSSHL [MDM2^137–152, reference compound] |  |  |  |  |  |  |  |  |  |  | 91000 |
